Laboratory results from patent US11220502B2, “Sulfone compounds and derivatives for the treatment and prophylaxis of virus infection” (Hoffmann-La Roche Inc., priority 2018, dated 2022).
Where two headings read alike, the source gives them in different places.

Tests used:
human TLR7 = target: T1, human TLR7 (Homo sapiens, UniProt Q9NYK1); test: HEK293-Blue-hTLR-7 cells assay (SEAP reporter, NF-κB activation); type: cell-based; details: for EC50: HEK293-Blue-hTLR-7 cells, 20 hrs incubation, SEAP reporter; for Ratio (EC50(prodrug)/EC50(active form)): calculated ratio of prodrug EC50 to EC50 of corresponding active form
T1 sequence (Q9NYK1 27-1049): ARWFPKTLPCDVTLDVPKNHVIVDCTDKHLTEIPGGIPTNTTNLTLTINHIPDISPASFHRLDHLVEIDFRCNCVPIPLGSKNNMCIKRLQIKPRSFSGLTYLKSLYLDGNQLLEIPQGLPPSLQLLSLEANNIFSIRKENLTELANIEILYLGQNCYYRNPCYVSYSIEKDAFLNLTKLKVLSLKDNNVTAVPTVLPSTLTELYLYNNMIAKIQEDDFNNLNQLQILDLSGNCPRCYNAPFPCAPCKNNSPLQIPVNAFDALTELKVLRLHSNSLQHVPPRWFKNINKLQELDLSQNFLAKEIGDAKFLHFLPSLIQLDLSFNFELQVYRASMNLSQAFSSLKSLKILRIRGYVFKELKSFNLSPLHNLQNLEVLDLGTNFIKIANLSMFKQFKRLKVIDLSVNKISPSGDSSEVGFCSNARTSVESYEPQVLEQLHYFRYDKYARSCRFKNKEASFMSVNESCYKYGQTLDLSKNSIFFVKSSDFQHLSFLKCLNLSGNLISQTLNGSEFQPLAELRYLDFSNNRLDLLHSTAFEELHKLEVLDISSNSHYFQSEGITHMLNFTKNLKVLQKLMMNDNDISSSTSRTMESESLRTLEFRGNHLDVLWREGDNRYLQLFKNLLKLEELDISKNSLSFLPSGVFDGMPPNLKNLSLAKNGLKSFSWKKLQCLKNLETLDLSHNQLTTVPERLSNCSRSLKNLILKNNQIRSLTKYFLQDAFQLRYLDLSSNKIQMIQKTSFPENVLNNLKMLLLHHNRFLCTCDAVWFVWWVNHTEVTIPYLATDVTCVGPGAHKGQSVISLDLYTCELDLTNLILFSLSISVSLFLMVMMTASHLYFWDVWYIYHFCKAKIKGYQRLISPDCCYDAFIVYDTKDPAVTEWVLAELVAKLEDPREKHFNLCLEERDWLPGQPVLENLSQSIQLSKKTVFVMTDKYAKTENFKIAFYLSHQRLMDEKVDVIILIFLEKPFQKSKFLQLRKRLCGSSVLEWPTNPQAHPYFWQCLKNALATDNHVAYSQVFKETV
Excerpt: HEK293-Blue-hTLR-7 Cells Assay
A stable HEK293-Blue-hTLR-7 cell line was purchased from InvivoGen (Cat. #: hkb-ht1r7, San Diego, Calif., USA). These cells were designed for studying the stimulation of human TLR7 by monitoring the activation of NF-κB. A SEAP (secreted embryonic alkaline phosphatase) reporter gene was placed under the control of the IFN-β minimal promoter fused to five NF-κB and AP-1-binding sites. The SEAP was induced by activating NF-κB and AP-1 via stimulating HEK-Blue hTLR7 cells with TLR7 ligands. Therefore the reporter expression was regulated by the NF-κB promoter upon stimulation of human TLR7 for 20 hrs. The cell culture supernatant SEAP reporter activity was determined using QUANTI-Blue™ kit (Cat. #: rep-qb1, Invivogen, San Diego, Calif., USA) at a wavelength of 640 nm, a detection medium that turns purple or blue in the presence of alkaline phosphatase.
HEK293-Blue-hTLR7 cells were incubated at a density of 250,000˜450,000 cells/mL in a volume of 180 μL in a 96-well plate in Dulbecco's Modified Eagle's medium (DMEM) containing 4.5 g/L glucose, 50 U/mL penicillin, […], […], 2 mM L-glutamine, 10% (V/V) heat-inactivated fetal bovine serum for 24 hrs. Then the HEK293-Blue-hTLR-7 cells were incubated with addition of 20 μL test compound in a serial dilution in the presence of final DMSO at 1% and perform incubation under 37° C. in a CO2 incubator for 20 hrs. Then 20 μL of the supernatant from each well was incubated with 180 μL Quanti-blue substrate solution at 37° C. for 2 hrs and the absorbance was read at 620˜655 nm using a spectrophotometer. The signalling pathway that TLR7 activation leads to downstream NF-κB activation has been widely accepted, and therefore similar reporter assay was also widely used for evaluating TLR7 agonist (Tsuneyasu Kaisho and Takashi Tanaka, Trends in Immunology, Volume 29, Issue 7, July 2008, […]; Hiroaki Hemmi et al, Nature Immunology 3, 196-200 (2002)).
The Compounds and Examples of the present invention were tested in HEK293-hTLR-7 assay for their TLR7 agonism activity as described herein and results are listed in Table 1. […] The calculated ratio of EC50(prodrug)/EC50(active form) were within the range from 27.7 to about 8233.

[1] = Single dose PK study in Male Wister-Han Rats; type: in vivo
Experimental: Single dose PK study in Male Wister-Han Rats The single dose PK in Male Wister-Han Rats was performed to assess pharmacokinetic properties of tested compounds. Two groups of animals were dosed via Gavage (POE) of the respective compound. Blood samples (approximately 20 μL) were collected via Jugular vein or an alternate site at 15 min, 30 min, 1 h, 2 h, 4 h, 7 h and 24 h post-dose groups. Blood samples were placed into tubes containing EDTA-K2 anticoagulant and centrifuged at 5000 rpm for 6 min at 4° C. to separate plasma from the samples. After centrifugation, the resulting plasma was transferred to clean tubes for bioanalysis of both prodrug and active form on LC/MS/MS. In the groups that prodrugs were dosed, the concentration of prodrugs in the plasma samples was under the detection limit. The “tested compound” in Table 3 was used as the internal standard for testing the metabolite (active form) of “dose compound” in vivo. The pharmacokinetic parameters were calculated using non-compartmental module of WinNonlin® Professional 6.2. The peak concentration (Cmax) was recorded directly from experimental observations. The area under the plasma concentration-time curve ([…]) was calculated using the linear trapezoidal rule up to the last detectable concentration. Cmax and AUC0-last are two critical PK parameters related to the in vivo efficacy of the tested compound. […]

[2] = prodrug, read-out: HEK293-hTLR-7 EC50 (Prodrug)

Row | Structure (SMILES) | EC50 (human TLR7; corresponding active form, read-out: HEK293-hTLR-7 EC50 (Active form)) [µM] | Cmax (nM) ([1]; 5 mg/kg oral dosing, male Wister-Han rats, plasma, tested compound Compound 8a (active form)) | EC50 (human TLR7; [2]) [µM] | Ratio (EC50(prodrug)/EC50(active form)) (human TLR7) | AUC0-last folds increase comparing with Compound 8a ([1]; oral administration, rats, prodrug versus active form) [folds]
1 | CCS(=O)(=O)c1nc(N)c2[nH]c(=O)n(Cc3ccc(Cl)cc3)c2n1 [Compound 8a, 6-amino-9-[(4-chlorophenyl)methyl]-2-ethylsulfonyl-7H-purin-8-one] | 0.083 | Not detected |  |  | 
2 | CCCN(C)C(=O)n1c(=O)n(Cc2ccc(Cl)cc2)c2nc(S(=O)(=O)CC)nc(N)c21 [Example 8, 6-Amino-9-[(4-chlorophenyl)methyl]-2-ethylsulfonyl-N-methyl-8-oxo-N-propyl-purine-7-carboxamide] |  |  | 14.9 | 179.5 | 14.5
3 | CCN(C)C(=O)n1c(=O)n(Cc2ccc(F)cc2)c2nc(S(=O)(=O)CC)nc(N)c21 [Example 19, 6-Amino-N-ethyl-2-ethylsulfonyl-9-[(4-fluorophenyl)methyl]-N-methyl-8-oxo-purine-7-carboxamide] |  |  | 494 | 8233 | 
4 | CCCN(C)C(=O)n1c(=O)n(Cc2ccc(OC)cc2)c2nc(S(=O)(=O)CCC)nc(N)c21 [Example 20, 6-Amino-9-[(4-methoxyphenyl)methyl]-N-methyl-8-oxo-N-propyl-2-propylsulfonyl-purine-7-carboxamide] |  |  | 32.1 | 4012.5 | 
5 | CCCS(=O)(=O)c1nc(N)c2c(n1)n(Cc1ccc(OC)cc1)c(=O)n2C(=O)N(C)CC [Example 21, 6-Amino-N-ethyl-9-[-(4-methoxyphenyl)methyl]-N-methyl-8-oxo-2-propylsulfonyl-purine-7-carboxamide] |  |  | 24.2 | 3025 | 
6 | CCCN(C)C(=O)n1c(=O)n(Cc2ccc(Br)cc2)c2nc(S(=O)(=O)CC)nc(N)c21 [Example 22, 6-Amino-9-[(4-bromophenyl)methyl]-2-ethylsulfonyl-N-methyl-N-propyl-8-oxo-purine-7-carboxamide] |  |  | 13.1 | 570 | 
7 | CCN(C)C(=O)n1c(=O)n(Cc2ccc(Br)cc2)c2nc(S(=O)(=O)CC)nc(N)c21 [Example 23, 6-Amino-9-[(4-bromophenyl)methyl]-N-ethyl-2-ethylsulfonyl-N-methyl-8-oxo-purine-7-carboxamide] |  |  | > 100 | >4348 | 
